Measurements: ChEMBL document CHEMBL4715762, “Discovery of anabaenopeptin 679 from freshwater algal bloom material: Insights into the structure-activity relationship of anabaenopeptin protease inhibitors” (Bioorg Med Chem Lett, 2016)
Active and inactive are the calls of the source. The rule behind the calls is not given here. Starred links: 1 amine or outer side, 2 acyl side, 3 side chain; linkers in the order of their positions; H or OH if unused. Positions of bridges follow the written chain, without caps; N, C: chain ends. Non-standard residues stand in square brackets, D forms with d. Residues, ends and D or L forms follow the SMILES beside them. NMehTyr = CN[C@@H](CCc1ccc(O)cc1)C(=O)O; X1 = NC(=O)N[C@H](CCCCN[*:1])C(=O)[*:2]; hTyr = N[C@@H](CCc1ccc(O)cc1)C(=O)O; NMeA = CN[C@@H](C)C(=O)O; CO = O=C([*:1])[*:2]

How the values were obtained:
Carboxypeptidase A1 [1] = molecular target: T1, Carboxypeptidase A1 (Homo sapiens, UniProt P15085); experiment: Inhibition of carboxypeptidase A (unknown origin) assessed as reduction in degradation of N-(4-methoxyphenylazoformyl)-Phe-OH using N-(4-methoxyphenylazoformyl)-Phe-OH as substrate
T1 sequence (P15085 whole entry): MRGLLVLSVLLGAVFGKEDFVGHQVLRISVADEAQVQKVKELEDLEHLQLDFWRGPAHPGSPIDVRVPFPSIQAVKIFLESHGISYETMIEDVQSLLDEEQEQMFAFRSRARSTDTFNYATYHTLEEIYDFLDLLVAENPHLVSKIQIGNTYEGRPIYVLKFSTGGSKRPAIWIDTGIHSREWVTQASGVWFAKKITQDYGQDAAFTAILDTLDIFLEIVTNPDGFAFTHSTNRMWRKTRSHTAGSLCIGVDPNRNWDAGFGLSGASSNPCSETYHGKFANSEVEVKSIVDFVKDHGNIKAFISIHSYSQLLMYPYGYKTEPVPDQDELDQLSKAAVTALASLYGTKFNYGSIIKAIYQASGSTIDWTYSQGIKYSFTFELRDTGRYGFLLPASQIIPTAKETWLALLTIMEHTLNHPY

[2] = molecular target: T2, Carboxypeptidase A1 (Homo sapiens) (UniProt P15085); experiment: Inhibition of carboxypeptidase A (unknown origin) assessed as reduction in degradation of N-(4-methoxyphenylazoformyl)-Phe-OH at > 10 uM using N-(4-methoxyphenylazoformyl)-Phe-OH as substrate; conditions: dose microM >10
T2 sequence (whole entry): T1 sequence (P15085 whole entry)

Carboxypeptidase A1 [3] = molecular target: T1, Carboxypeptidase A1; experiment: Inhibition of carboxypeptidase A (unknown origin)
Carboxypeptidase A1 [4] = molecular target: T1, Carboxypeptidase A1; experiment: Inhibition of carboxypeptidase A (unknown origin) assessed as reduction in hydrolysis of hippuryl-L-phenylalanine using hippuryl-L-phenylalanine as substrate
Carboxypeptidase A1 [5] = molecular target: T3, Carboxypeptidase A1 (Bos taurus, UniProt P00730); experiment: Inhibition of carboxypeptidase A in bovine pancreas assessed as reduction in hydrolysis of hippuryl-L-phenylalanine using hippuryl-L-phenylalanine as substrate measured after 2 hrs; type: tissue-based
T3 sequence (P00730 whole entry): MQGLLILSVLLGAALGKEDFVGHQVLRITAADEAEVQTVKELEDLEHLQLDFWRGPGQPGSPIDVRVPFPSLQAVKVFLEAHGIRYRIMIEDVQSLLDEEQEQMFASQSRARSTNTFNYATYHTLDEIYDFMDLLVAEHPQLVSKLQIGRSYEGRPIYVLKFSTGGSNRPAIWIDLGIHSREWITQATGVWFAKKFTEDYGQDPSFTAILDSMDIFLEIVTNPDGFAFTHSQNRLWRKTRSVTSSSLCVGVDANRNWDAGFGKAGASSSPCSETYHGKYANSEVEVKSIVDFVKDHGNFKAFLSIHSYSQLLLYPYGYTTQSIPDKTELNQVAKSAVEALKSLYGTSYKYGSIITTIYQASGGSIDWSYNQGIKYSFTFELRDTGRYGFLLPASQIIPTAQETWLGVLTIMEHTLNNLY

Compound | IC50 (Carboxypeptidase A1 [1]) [µM] | also measured
CC[C@H](C)[C@@H]1NC(=O)[C@H](NC(=O)N[C@@H](CCCNC(=N)N)C(=O)O)CCCCNC(=O)[C@H](Cc2ccccc2)NC(=O)[C@H](C)N(C)C(=O)[C@H](CCc2ccc(O)cc2)NC1=O [ANABAENOPEPTIN F] ({Arg-CO}-[dK]I[hTyr][NMeA]F; lactam 1-C) | > 24 | 
CC[C@H](C)[C@@H]1NC(=O)[C@H](NC(=O)N[C@@H](Cc2ccc(O)cc2)C(=O)O)CCCCNC(=O)[C@H]([C@@H](C)CC)NC(=O)[C@H](CCc2ccc(O)cc2)N(C)C(=O)[C@H](CCc2ccc(O)cc2)NC1=O [ANABAENOPEPTIN G] ({Tyr-CO}-[dK]I[hTyr][NMehTyr]I; lactam 1-C) |  | IC50 (Carboxypeptidase A1 [4]): 0.002 µM
CC[C@H](C)[C@H](NC(=O)N[C@@H]1CCCCNC(=O)[C@H]([C@@H](C)CC)NC(=O)[C@H](CCc2ccc(O)cc2)N(C)C(=O)[C@H](CCc2ccc(O)cc2)NC(=O)[C@H](C(C)C)NC1=O)C(=O)O [ANABAENOPEPTIN T] ({Ile-CO}-[dK]V[hTyr][NMehTyr]I; lactam 1-C) |  | IC50 (Carboxypeptidase A1 [5]): 2.3 µM

Now from value to compound, other results behind:

IC50 (Carboxypeptidase A1 [1]) [µM] | Compound | also measured
6.74 | CC(C)[C@@H]1NC(=O)[C@H](NC(N)=O)CCCCNC(=O)[C@H](Cc2ccccc2)NC(=O)[C@H](C)N(C)C(=O)[C@H](CCc2ccc(O)cc2)NC1=O (cyclo(F[X1]V[hTyr][NMeA])) | 
> 11 | CC[C@H](C)[C@@H]1NC(=O)[C@H](CCc2ccc(O)cc2)N(C)C(=O)[C@H](CCc2ccc(O)cc2)NC(=O)[C@H](C(C)C)NC(=O)[C@H](NC(=O)N[C@@H](CCCNC(=N)N)C(=O)O)CCCCNC1=O [ANABAENOPEPTIN 908] ({Arg-CO}-[dK]V[hTyr][NMehTyr]I; lactam 1-C) | inhibition [2]: Active; IC50 (Carboxypeptidase A1 [3]): > 22 µM
> 24 | CC(C)[C@@H]1NC(=O)[C@H](NC(=O)N[C@@H](CCCNC(=N)N)C(=O)O)CCCCNC(=O)[C@H](Cc2ccccc2)NC(=O)[C@H](C)N(C)C(=O)[C@H](CCc2ccc(O)cc2)NC1=O [ANABAENOPEPTIN B] ({Arg-CO}-[dK]V[hTyr][NMeA]F; lactam 1-C) | 
10.2 | CC[C@H](C)[C@@H]1NC(=O)[C@H](NC(=O)N[C@@H](CCCNC(=N)N)C(=O)O)CCCCNC(=O)[C@H]([C@@H](C)CC)NC(=O)[C@H](CCc2ccc(O)cc2)N(C)C(=O)[C@H](CCc2ccc(O)cc2)NC1=O [ANABAENOPEPTIN H] ({Arg-CO}-[dK]I[hTyr][NMehTyr]I; lactam 1-C) | 
